Results as given in patent publication US20250114338A1, “TETRAHYDRO-PYRIDO[3,4-b]INDOLE ESTROGEN RECEPTOR MODULATORS AND USES THEREOF” (Genentech, Inc., priority 2014, published 2025).

system: ER-alpha MCF7; test: ER-alpha MCF7 HCS EC50; stated as measured by in vitro cell proliferation assays of Examples 902 and 903; type: cell-based; conditions: Homo sapiens, MCF7, MCF7 cells; Table 2
Excerpt: The CellTiter-Glo® Luminescent Cell Viability Assay is a homogeneous method to determine the number of viable cells in culture based on quantitation of the ATP present, which signals the presence of metabolically active cells. The CellTiter-Glo® Assay is designed for use with multiwell plate formats, making it ideal for automated high-throughput screening (HTS), cell proliferation and cytotoxicity assays. The homogeneous assay procedure involves adding a single reagent (CellTiter-Glo® Reagent) directly to cells cultured in serum-supplemented medium. Cell washing, removal of medium or multiple pipetting steps are not required. The Cell Titer-Glo® Luminescent Cell Viability Assay, including reagents and protocol are commercially available (Promega Corp., Madison, WI, Technical Bulletin TB288).
The assay assesses the ability of compounds to enter cells and inhibit cell proliferation. The assay principle is based on the determination of the number of viable cells present by quantitating the ATP present in a homogenous assay where addition of the Cell Titer-Glo® reagent results in cell lysis and generation of a luminescent signal through the luciferase reaction. The luminescent signal is proportional to the amount of ATP present.
Cell Culture Medium: RPMI or DMEM high glucose, 10% Fetal Bovine Serum, 2 mM L-Glutamine, P/S. Incubate O/N (overnight) at 37° C., 5% CO2.
Day 2—Add Drug to Cells, Compound Dilution, DMSO Plates (serial 1:2 for 9 points). Add 20 μl of compound at 10 mM in the 2nd column of 96 well plate. […] Add 147 μl of Media into all wells. Transfer 3 μl of DMSO+ compound from each well in the DMSO Plate to each corresponding well on Media Plate using Rapidplate® (Caliper, a Perkin-Elmer Co.). For 2 drug combination studies, transfer one drug 1.5 μl of DMSO+ compound from each well in the DMSO Plate to each corresponding well on Media Plate using Rapidplate. Then, transfer another drug 1.5 μl to the medium plate.
Drug Addition to Cells, Cell Plate (1:10 dilution): Add 6 μl of media+ compound directly to cells (54 μl of media on the cells already). Incubate 3 days at 37° C., 5% CO2 in an incubator that will not be opened often.
Day 5—Develop Plates, Thaw Cell Titer Glo Buffer at room temperature: Remove Cell Plates from 37° C. and equilibrate to room temperature for about 30 minutes. Add Cell Titer-Glo® Buffer to Cell Titer-Glo® Substrate (bottle to bottle). Add 30 μl Cell Titer-Glo® Reagent (Promega cat. #G7572) to each well of cells. Place on plate shaker for about 30 minutes. Read luminescence on Analyst HT Plate Reader (half second per well).
Cell viability assays and combination assays: Cells were seeded at 1000-2000 cells/well in 384-well plates for 16 h. On day two, nine serial 1:2 compound dilutions were made in DMSO in a 96 well plate. The compounds were further diluted into growth media using a Rapidplate® robot (Zymark Corp., Hopkinton, MA). The diluted compounds were then added to quadruplicate wells in 384-well cell plates and incubated at 37° C. and 5% CO2. After 4 days, relative numbers of viable cells were measured by luminescence using Cell Titer-Glo® (Promega) according to the manufacturer's instructions and read on a Wallac Multilabel Reader® (PerkinElmer, Foster City). EC50 values were calculated using Prism® 4.0 software (GraphPad, San Diego).
5 ul of each individual compound concentration and each control compound was transferred to the cell plate. Fulvestrant was added to control wells at a final concentration of 100 nM). DMSO was added to negative control wells (0.2% v/v).

Row | Compound | EC50 [nM]
1 | C[C@@H]1Cc2c([nH]c3ccccc23)[C@@H](c2c(F)cc(OCCN3CC(CF)C3)cc2F)N1CC1CC(F)(F)C1 [Example 146, (1R,3R)-2-[(3,3-difluorocyclobutyl)methyl]-1-[2,6-difluoro-4-[2-[3-(fluoromethyl)azetidin-1-yl]ethoxy]phenyl]-3-methyl-1,3,4,9-tetrahydropyrido[3,4-b]indole] | 10
2 | C[C@@H]1Cc2c([nH]c3ccccc23)[C@@H](c2c(F)cc(OCCN3CC(CF)C3)cc2F)N1CC(C)(C)C [Example 147, (1R,3R)-1-[2,6-difluoro-4-[2-[3-(fluoromethyl)azetidin-1-yl]ethoxy]phenyl]-2-(2,2-dimethylpropyl)-3-methyl-1,3,4,9-tetrahydropyrido[3,4-b]indole] | 0.698
3 | C[C@@H]1Cc2c([nH]c3ccccc23)[C@@H](c2c(F)cc(OCCN3CC(CF)C3)cc2F)N1C(=O)C1CCC1 [Example 148, cyclobutyl-[(1R,3R)-1-[2,6-difluoro-4-[2-[3-(fluoromethyl)azetidin-1-yl]ethoxy]phenyl]-3-methyl-1,3,4,9-tetrahydropyrido[3,4-b]indol-2-yl]methanone] | 1.47
4 | C[C@@H]1Cc2c([nH]c3ccccc23)[C@@H](c2c(F)cc(OCCN3CC(CF)C3)cc2F)N1C(=O)C1CCCC1 [Example 149, cyclopentyl-[(1R,3R)-1-[2,6-difluoro-4-[2-[3-(fluoromethyl)azetidin-1-yl]ethoxy]phenyl]-3-methyl-1,3,4,9-tetrahydropyrido[3,4-b]indol-2-yl]methanone] | 2.16

Stronger by EC50, values ahead:

Row | EC50 [nM] | Compound
5 | 0.483 | C[C@H]1CCN(CCOc2cc(F)c([C@@H]3c4[nH]c5ccccc5c4C[C@@H](C)N3CC(C)(C)F)c(F)c2)C1 [Example 150, (1R,3R)-1-[2,6-difluoro-4-[2-[(3S)-3-methylpyrrolidin-1-yl]ethoxy]phenyl]-2-(2-fluoro-2-methyl-propyl)-3-methyl-1,3,4,9-tetrahydropyrido[3,4-b]indole]
6 | 0.362 | CCCN1CC(COc2cc(F)c([C@@H]3c4[nH]c5ccccc5c4C[C@@H](C)N3CC(C)(C)F)c(F)c2)C1 [Example 152, (1R,3R)-1-[2,6-difluoro-4-[(1-propylazetidin-3-yl)methoxy]phenyl]-2-(2-fluoro-2-methyl-propyl)-3-methyl-1,3,4,9-tetrahydropyrido[3,4-b]indole]
7 | 0.221 | C[C@@H]1Cc2c([nH]c3ccccc23)[C@@H](c2c(F)cc(OCCN3CC(CF)C3)cc2F)N1CC1(F)CCC1 [Example 153, (1R,3R)-1-[2,6-difluoro-4-[2-[3-(fluoromethyl)azetidin-1-yl]ethoxy]phenyl]-2-[(1-fluorocyclobutyl)methyl]-3-methyl-1,3,4,9-tetrahydropyrido[3,4-b]indole]
8 | 0.156 | C[C@H](COc1cc(F)c([C@@H]2c3[nH]c4ccccc4c3C[C@@H](C)N2CC(C)(C)F)c(F)c1)N1CCCC1 [Example 151, (1R,3R)-1-[2,6-difluoro-4-[(2R)-2-pyrrolidin-1-ylpropoxy]phenyl]-2-(2-fluoro-2-methyl-propyl)-3-methyl-1,3,4,9-tetrahydropyrido[3,4-b]indole]
9 | 0.096 | C[C@@H]1Cc2c([nH]c3ccccc23)[C@@H](c2c(F)cc(NC3CN(CCCF)C3)cc2F)N1CC(C)(C)F [Example 145, N-(3,5-difluoro-4-((1R,3R)-2-(2-fluoro-2-methylpropyl)-3-methyl-2,3,4,9-tetrahydro-1H-pyrido[3,4-b]indol-1-yl)phenyl)-1-(3-fluoropropyl)azetidin-3-amine]
10 | 0.0333 | C[C@@H]1Cc2c([nH]c3ccccc23)[C@@H](c2c(F)cc(OCCN3CC(CF)C3)cc2F)N1C[C@](C)(F)CO [Example 154, (S)-3-((1R,3R)-1-(2,6-difluoro-4-(2-(3-(fluoromethyl)azetidin-1-yl)ethoxy)phenyl)-3-methyl-3,4-dihydro-1H-pyrido[3,4-b]indol-2(9H)-yl)-2-fluoro-2-methylpropan-1-ol]
